From the supplement of paper PMC11061612

Experiments:
Assay in all cases: Bliss excess, mean over the matrix (fraction); higher = more synergy
[1] = system: TE-15 (Esophageal Squamous Cell Carcinoma)
Summary of the method: (§1)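 Bliss excess equals the observed combination effect minus the expected value EA + EB − EA·EB, where EA and EB are the effects of each agent alone. Combination Emax is the second-highest inhibition within the matrix. Inhibition was scaled from CellTiter-Glo 2.0 luminescence, with 0 set by vehicle wells and 1 by blank wells, after 72 hours of two-drug dosing of cells plated in 1536-well plates.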

HOS (Osteosarcoma) = system: HOS (Osteosarcoma)
Summary of the method: as §1

[2] = system: EC-GI-10 (Esophageal Squamous Cell Carcinoma)
Summary of the method: as §1

[3] = system: LB831-BLC (Bladder Carcinoma)
Summary of the method: as §1

[4] = system: TCCSUP (Bladder Carcinoma)
Summary of the method: as §1

[5] = system: KP-1N (Pancreatic Carcinoma)
Summary of the method: as §1

[6] = system: TE-9 (Esophageal Squamous Cell Carcinoma)
Summary of the method: as §1

[7] = system: UM-UC-3 (Bladder Carcinoma)
Summary of the method: as §1

[8] = system: CaR-1 (Colorectal Carcinoma)
Summary of the method: as §1

NB10 (Neuroblastoma) = system: NB10 (Neuroblastoma)
Summary of the method: as §1

[9] = system: CCRF-CEM (T-Lymphoblastic Leukemia)
Summary of the method: as §1

[10] = system: OVCA420 (Ovarian Carcinoma)
Summary of the method: as §1

[11] = system: NCI-H82 (Small Cell Lung Carcinoma)
Summary of the method: as §1

[12] = system: DEL (T-Cell Non-Hodgkin's Lymphoma)
Summary of the method: as §1

[13] = system: RO82-W-1 (Thyroid Gland Carcinoma)
Summary of the method: as §1

[14] = system: HCC-78 (Lung Adenocarcinoma)
Summary of the method: as §1

[15] = system: RC-K8 (B-Cell Non-Hodgkin's Lymphoma)
Summary of the method: as §1

KELLY (Neuroblastoma) = system: KELLY (Neuroblastoma)
Summary of the method: as §1

[16] = system: LS-180 (Colorectal Carcinoma)
Summary of the method: as §1

[17] = system: COLO-205 (Colorectal Carcinoma)
Summary of the method: as §1

| SMILES | Bliss excess [1] | Bliss excess (HOS (Osteosarcoma)) | Bliss excess [2] | Bliss excess [3] | Bliss excess [4] | Bliss excess [5] | Bliss excess [6] | Bliss excess [7] | Bliss excess [8] | Bliss excess (NB10 (Neuroblastoma)) | Bliss excess [9] | Bliss excess [10] | Bliss excess [11] | Bliss excess [12] | Bliss excess [13] | Bliss excess [14] | Bliss excess [15] | Bliss excess (KELLY (Neuroblastoma)) | Bliss excess [16] | Bliss excess [17] |
| --- | --- | --- | --- | --- | --- | --- | --- | --- | --- | --- | --- | --- | --- | --- | --- | --- | --- | --- | --- | --- |
| CC(=O)Nc1cccc(-n2c(=O)n(C3CC3)c(=O)c3c(Nc4ccc(I)cc4F)n(C)c(=O)c(C)c32)c1 [Trametinib] + Cc1nc(-c2cn3c(n2)-c2ccc(-c4cnn(C(C)(C)C(N)=O)c4)cc2OCC3)n(C(C)C)n1 [Taselisib] (first compound max 1 µM, 7x7, partner max 10 µM) | 0.0816 | 0.0604 | 0.112 | 0.0977 | 0.0896 | 0.101 | 0.073 | 0.137 | 0.0783 | 0.118 | 0.0951 | 0.0806 | 0.0361 | 0.166 | 0.0426 | 0.0913 | 0.0907 | 0.132 | 0.0957 | 0.0229 |
| Cn1cnc2c(F)c(Nc3ccc(Br)cc3Cl)c(C(=O)NOCCO)cc21 [Selumetinib] + CC(C)n1c(=O)n(C)c2cnc3cc(F)c(-c4ccc(OCCCN5CCCCC5)nc4)cc3c21 [AZD1390] (first compound max 10 µM, 7x7, partner max 0.3 µM) | -0.0359 | -0.0404 | -0.0359 | -0.0237 | -0.0588 | -0.0532 | -0.0228 | -0.0205 | -0.041 | -0.0323 | -0.0131 | 0.0018 | -0.0349 | 0.0087 | -0.034 | -0.0313 | -0.0253 | -0.0177 | -0.0519 | -0.0209 |
| Cn1cnc2c(F)c(Nc3ccc(Br)cc3Cl)c(C(=O)NOCCO)cc21 [Selumetinib] + CCN(CCO)CCCOc1ccc2c(Nc3cc(CC(=O)Nc4cccc(F)c4)[nH]n3)ncnc2c1 [AZD2811] (first compound max 10 µM, 7x7, partner max 1 µM) | -0.0741 | -0.0192 | 0.0087 | -0.0385 | -0.0822 | -0.0461 | -0.0347 | -0.048 | 0.0301 | -0.0402 | 0.0007 | 0.0471 | 0.0317 | 0.263 | 0.0016 | -0.0124 | 0.0763 | -0.0709 | -0.0541 | -0.0081 |
| COc1nnc2ccc(N3CCC(c4ccc(OCCN5CCN(C)C(=O)[C@H]5C)cc4)CC3)nn12 [AZD5153] + Cn1cnc2c(F)c(Nc3ccc(Br)cc3Cl)c(C(=O)NOCCO)cc21 [Selumetinib] (first compound max 1 µM, 7x7, partner max 10 µM) | 0.0225 | 0.0429 | 0.0858 | -0.0446 | -0.0264 | -0.0417 | -0.0161 | 0.113 | 0.0208 | -0.0687 | -0.0015 | 0.0303 | -0.0771 | -0.0896 | 0.038 | 0.0035 | -0.048 | 0.13 | -0.0284 | 0.0422 |
| CC1(C)CCC(CN2CCN(c3ccc(C(=O)NS(=O)(=O)c4ccc(NCC5CCOCC5)c([N+](=O)[O-])c4)c(Oc4cnc5[nH]ccc5c4)c3)CC2)=C(c2ccc(Cl)cc2)C1 [Venetoclax] + CCN(CCO)CCCOc1ccc2c(Nc3cc(CC(=O)Nc4cccc(F)c4)[nH]n3)ncnc2c1 [AZD2811] (first compound max 1 µM, 7x7, partner max 1 µM) | -0.0386 | -0.0102 | -0.0058 | -0.0073 | -0.0259 | -0.0182 | -0.0184 | -0.0234 | -0.055 | -0.0539 | -0.0322 | -0.0114 | 0.0452 | -0.0345 | -0.0604 | -0.0149 | 0.0214 | 0.0038 | -0.0106 | -0.0461 |
| Cc1c2c(nn1C)CSCc1cc(n(C)n1)CSc1cc(c3ccccc3c1)OCCCc1c(C(=O)O)n(C)c3c-2c(Cl)ccc13 [AZD5991] + CN(C)CCCOc1ccc(-c2ccc3ncc4c(c3c2)n(C2CCOCC2)c(=O)n4C)cn1 [AZD0156] (first compound max 1 µM, 7x7, partner max 1 µM) | 0.0128 | -0.0026 | 0.0487 | 0.0072 | -0.0332 | -0.0132 | -0.0529 | -0.0084 | -0.0271 | 0.0269 | 0.0467 | -0.0333 | -0.0207 | -0.0174 | 0.0257 | -0.0059 | 0.0237 | -0.0469 | 0.0054 | 0.0261 |
| COc1nnc2ccc(N3CCC(c4ccc(OCCN5CCN(C)C(=O)[C@H]5C)cc4)CC3)nn12 [AZD5153] + C=CCn1c(=O)c2cnc(Nc3ccc(N4CCN(C)CC4)cc3)nc2n1-c1cccc(C(C)(C)O)n1 [AZD1775] (first compound max 1 µM, partner max 1 µM) | -0.001 | -0.0504 | -0.0813 | -0.0157 | -0.0497 | 0.0464 | -0.0028 | -0.0413 | -0.0267 | -0.0727 | -0.019 | -0.0589 | -0.0656 | -0.0679 | 0.038 | -0.055 | -0.101 | -0.0581 | -0.049 | -0.0529 |
| CS(=O)(=O)CCNCc1ccc(-c2ccc3ncnc(Nc4ccc(OCc5cccc(F)c5)c(Cl)c4)c3c2)o1 [Lapatinib] + C[C@@H](Oc1cc(-c2cnn(C3CCNCC3)c2)cnc1N)c1c(Cl)ccc(F)c1Cl [Crizotinib] (first compound max 10 µM, 7x7, partner max 10 µM) | -0.0148 | 0.0138 | -0.0379 | -0.0321 | -0.0611 | -0.0435 | -0.0194 | -0.0739 | -0.0084 | -0.0771 | -0.0185 | 0.0287 | -0.0273 | 0.0074 | -0.0392 | -0.0289 | -0.0433 | -0.03 | 0.0173 | -0.0261 |
| Cc1c2c(nn1C)CSCc1cc(n(C)n1)CSc1cc(c3ccccc3c1)OCCCc1c(C(=O)O)n(C)c3c-2c(Cl)ccc13 [AZD5991] + CC1(C)CCC(CN2CCN(c3ccc(C(=O)NS(=O)(=O)c4ccc(NCC5CCOCC5)c([N+](=O)[O-])c4)c(Oc4cnc5[nH]ccc5c4)c3)CC2)=C(c2ccc(Cl)cc2)C1 [Venetoclax] (first compound max 1 µM, 7x7, partner max 1 µM) | -0.05 | 0.0413 | -0.0024 | -0.0229 | -0.0662 | -0.0262 | 0.0041 | -0.0062 | -0.0225 | 0.0065 | 0.0935 | -0.0045 | -0.036 | 0.0081 | -0.0523 | -0.0245 | -0.0142 | 0.249 | 0.0019 | -0.0335 |
